The values that follow come from publication PMC9225712, “Rational design of biodegradable sulphonamide candidates treating septicaemia by synergistic dual inhibition of COX-2/PGE2 axis and DHPS enzyme” (Journal of Enzyme Inhibition and Medicinal Chemistry, 2022).

Each structure is given as a SMILES string.

Assay [1] concerns Bacillus subtilis (RCMB 0100162). Put plainly: Inhibition zone, agar cup diffusion. The conditions noted are these: RCMB0100162, 24 h, read-out: inhibition zones (IZ) B. subtillis.
For assay [2], the system named is Streptococcus mutans (RCMB 0100172). Description: Inhibition zone, agar cup diffusion. The conditions noted are these: RCMB0100172, 24 h, read-out: inhibition zones (IZ) S. mutans.
Assay [3] deals with Staphylococcus epidermidis (RCMB 0100183). Put plainly: Inhibition zone, agar cup diffusion. The conditions noted are these: RCMB0100183, 24 h, read-out: inhibition zones (IZ) S. epidermidis.
In assay [4] the test system is Staphylococcus aureus (RCMB 0100183). Description: Inhibition zone, agar cup diffusion. The following applies: RCMB0100183, 24 h, read-out: inhibition zones (IZ) S. aureus.
The test system of assay [5] is Shigella dysenteriae (RCMB 0100542). Description: Inhibition zone, agar cup diffusion. The class given is cell-based. The conditions noted are these: RCMB0100542, 24 h, read-out: inhibition zones (IZ) S. dysenteriae.
Assay [6] concerns the target T1, ovine COX-1 (Ovis aries, UniProt P05979).
T1 construct: purchased Cayman Chemicals Inc. 560131
T1 sequence (P05979 25-600): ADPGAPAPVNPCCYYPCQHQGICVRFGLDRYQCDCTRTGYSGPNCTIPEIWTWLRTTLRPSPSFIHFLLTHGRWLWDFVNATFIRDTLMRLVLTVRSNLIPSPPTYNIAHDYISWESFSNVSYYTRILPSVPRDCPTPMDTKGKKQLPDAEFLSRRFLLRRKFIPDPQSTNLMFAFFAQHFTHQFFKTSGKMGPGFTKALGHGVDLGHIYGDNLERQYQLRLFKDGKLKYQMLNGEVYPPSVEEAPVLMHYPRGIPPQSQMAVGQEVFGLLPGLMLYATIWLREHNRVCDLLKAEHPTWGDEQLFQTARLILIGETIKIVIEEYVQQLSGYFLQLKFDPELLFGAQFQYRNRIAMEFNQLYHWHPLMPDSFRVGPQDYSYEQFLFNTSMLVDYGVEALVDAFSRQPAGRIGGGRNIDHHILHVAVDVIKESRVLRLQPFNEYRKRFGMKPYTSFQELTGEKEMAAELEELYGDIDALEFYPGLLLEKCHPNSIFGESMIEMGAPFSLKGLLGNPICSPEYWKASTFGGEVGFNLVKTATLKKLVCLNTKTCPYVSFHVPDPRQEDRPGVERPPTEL
Put plainly: In vitro COX-1 enzymatic assay (Cayman kit 560131). The format is biochemical. The conditions noted are these: Mean ± SEM of triplicate determinations.

Assay [7] concerns Escherichia coli (RCMB 010052). Put plainly: Inhibition zone, agar cup diffusion. The conditions noted are these: RCMB010052, 24 h, read-out: inhibition zones (IZ) E.coli.
Assay [8] concerns the target T2, human recombinant COX-2 (Homo sapiens, UniProt P35354).
T2 sequence (P35354 18-604): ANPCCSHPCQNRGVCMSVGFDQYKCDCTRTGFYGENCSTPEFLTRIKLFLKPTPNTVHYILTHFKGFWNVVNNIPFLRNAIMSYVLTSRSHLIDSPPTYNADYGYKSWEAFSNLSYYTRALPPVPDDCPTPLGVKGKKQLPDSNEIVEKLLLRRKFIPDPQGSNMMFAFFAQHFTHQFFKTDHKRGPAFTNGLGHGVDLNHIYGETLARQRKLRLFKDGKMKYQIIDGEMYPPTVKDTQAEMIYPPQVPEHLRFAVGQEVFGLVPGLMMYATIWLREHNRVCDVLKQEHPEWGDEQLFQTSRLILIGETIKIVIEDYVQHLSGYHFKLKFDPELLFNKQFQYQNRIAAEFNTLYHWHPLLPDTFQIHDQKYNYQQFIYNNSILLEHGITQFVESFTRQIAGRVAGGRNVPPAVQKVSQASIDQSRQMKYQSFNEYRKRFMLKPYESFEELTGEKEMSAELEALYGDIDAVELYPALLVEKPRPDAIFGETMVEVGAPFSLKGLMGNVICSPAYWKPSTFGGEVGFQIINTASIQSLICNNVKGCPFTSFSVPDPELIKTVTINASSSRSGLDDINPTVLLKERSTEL
Description: In vitro COX-2 enzymatic assay (Cayman kit 560131). The following applies: for SI COX-1/COX-2: COX-2 selectivity index: COX-1 IC50/COX-2 IC50.

The subject of assay [9] is Pseudomonas aeruginosa (RCMB 0100243). Description: Inhibition zone, agar cup diffusion. The following applies: RCMB0100243, 24 h, read-out: inhibition zones (IZ) P.aeruginosa.
In assay [10] the test system is Salmonella typhi (RCMB 0100104). Put plainly: Inhibition zone, agar cup diffusion. The class given is cell-based. The following applies: Salmonella enterica, 24 h, read-out: inhibition zones (IZ) S. typhi.
Assay [11] deals with Proteus vulgaris (RCMB 010085). Description: Inhibition zone, agar cup diffusion. The following applies: RCMB010085, 24 h, read-out: inhibition zones (IZ) P. vulgaris.

On to `CC1(C)S[C@@H]2[C@H](NC(=O)[C@H](N)c3ccccc3)C(=O)N2[C@H]1C(=O)O` [Ampicillin, reference compound], for which the zone of inhibition at 1000 µg/mL was 15 mm in [1], 30 mm in [2], 32 mm in assay [3] and 30 mm in [4].
Turning to `CCCCNC(=O)c1cc(/N=N/c2ccc(S(N)(=O)=O)cc2)ccc1O` [Compound 5a, N-Butyl-2-hydroxy-5-((4-sulfamoylphenyl)diazenyl) benzamide], the zone of inhibition at 1000 µg/mL in assay [1] came to 17 mm; in assay [5], 25 mm; in [7], 14 mm; in assay [2], 29 mm; in assay [3], 33 mm; in assay [9] it was 14 mm. The zone of inhibition at 1000 µg/mL stood at 26 mm in assay [4], 15 mm in assay [10] and 18 mm in [11]. Further, the values for the IC50 in assay [6] and in assay [8] were 9.6 ± 0.06 µM and 110 ± 0.3 nM, respectively. The “SI COX-1/COX-2” value in [8] is reported as 87.3.
On to `CCCCNC(=O)c1cc(/N=N/c2ccc(S(=O)(=O)Nc3ncccn3)cc2)ccc1O` [Compound 5c, N-Butyl-2-hydroxy-5-((4-(N-(pyrimidin-2-yl)sulfamoyl)phenyl)diazenyl) benzamide], for which the zone of inhibition at 1000 µg/mL in assay [1] stood at 19 mm; in [5] it was 25 mm; in assay [7], 16 mm; in assay [2], 31 mm; in assay [3], 30 mm; in assay [9], 16 mm. Moreover, the zone of inhibition at 1000 µg/mL stood at 29 mm in assay [4], 13 mm in [10] and 17 mm in assay [11]. Moreover, the values for the IC50 in [6] and in assay [8] were 11.2 ± 0.08 µM and 80 ± 0.3 nM, respectively. In [8], the “SI COX-1/COX-2” value is listed as 145.5.
As for `CCCCNC(=O)c1cc(/N=N/c2ccc(S(=O)(=O)Nc3nccc(C)n3)cc2)ccc1O` [Compound 5d, N-Butyl-2-hydroxy-5-((4-(N-(4-methylpyrimidin-2yl)sulfamoyl)phenyl)diazenyl) benzamide], the zone of inhibition at 1000 µg/mL in assay [1] was determined as 20 mm; in [5], 26 mm; in [7] it was 16 mm; in [2], 28 mm; in assay [3], 32 mm; in assay [9], 18 mm. Also, the values for the zone of inhibition at 1000 µg/mL in [4], in assay [10] and in assay [11] were 28 mm, 16 mm and 19 mm, respectively. Moreover, the IC50 in assay [6] amounted to 10.6 ± 0.08 µM; in assay [8], 90 ± 1 nM. Also, the “SI COX-1/COX-2” value in assay [8] was 116.5.
For `NS(=O)(=O)c1ccc(/N=N/c2ccc(O)c(C(=O)NCc3ccccc3)c2)cc1` [Compound 5e, N-Benzyl-2-hydroxy-5-((4-sulfamoylphenyl)diazenyl) benzamide], the zone of inhibition at 1000 µg/mL in assay [1] was 16 mm; in assay [5] it was 25 mm; in assay [7], 16 mm; in [2], 30 mm; in assay [3] it was 35 mm; in assay [9] it was 18 mm. The figures for the zone of inhibition at 1000 µg/mL in assay [4], in assay [10] and in [11] were 32 mm, 16 mm and 21 mm, respectively. Moreover, the IC50 was 8.3 ± 0.06 µM in assay [6] and 120 ± 3 nM in assay [8]. In assay [8], the “SI COX-1/COX-2” value is 69.2.
Take `C[C@H]1COc2c(N3CCN(C)CC3)c(F)cc3c(=O)c(C(=O)O)cn1c23` [Levofloxacin, levofloxacin, reference compound]: the zone of inhibition at 1000 µg/mL came out at 20 mm in [5]; 11 mm in [7]; 8 mm in assay [9]; 11 mm in assay [10]; 15 mm in [11].
